According to PubChem BioAssay AID624167 (Sanford-Burnham Center for Chemical Genomics, 2012):
pIC50: −log10 of the molar value. Activity calls are given as the source filed them.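 Rule for the calls: active = mean IC50 for reducing PEG3 promoter reporter signal at or below a set limit, with IC50 above the limit in both counter screens; inactive = the rest, including counter screen hits.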

Experiments:
[1] = inhibition of PEG-3 promoter-driven reporter – cell-based, HeLa, luciferase, CREF/GAPDH counter-screen panel, dose response (AID 624167); settings: CREF/GAPDH counter-screens; GAPDH; mean of runs
[2] = tested on: GAPDH; assay: as above; settings: CREF/GAPDH counter-screens
[3] = target: PEG-3 (UniProt Q6IN02); assay: as above; settings: HeLa PEG-Prom luciferase reporter, overnight, CREF/GAPDH counter-screens, mean of runs
Sequence of PEG-3 (UniProt Q6IN02) (Q6IN02 whole entry, looked up): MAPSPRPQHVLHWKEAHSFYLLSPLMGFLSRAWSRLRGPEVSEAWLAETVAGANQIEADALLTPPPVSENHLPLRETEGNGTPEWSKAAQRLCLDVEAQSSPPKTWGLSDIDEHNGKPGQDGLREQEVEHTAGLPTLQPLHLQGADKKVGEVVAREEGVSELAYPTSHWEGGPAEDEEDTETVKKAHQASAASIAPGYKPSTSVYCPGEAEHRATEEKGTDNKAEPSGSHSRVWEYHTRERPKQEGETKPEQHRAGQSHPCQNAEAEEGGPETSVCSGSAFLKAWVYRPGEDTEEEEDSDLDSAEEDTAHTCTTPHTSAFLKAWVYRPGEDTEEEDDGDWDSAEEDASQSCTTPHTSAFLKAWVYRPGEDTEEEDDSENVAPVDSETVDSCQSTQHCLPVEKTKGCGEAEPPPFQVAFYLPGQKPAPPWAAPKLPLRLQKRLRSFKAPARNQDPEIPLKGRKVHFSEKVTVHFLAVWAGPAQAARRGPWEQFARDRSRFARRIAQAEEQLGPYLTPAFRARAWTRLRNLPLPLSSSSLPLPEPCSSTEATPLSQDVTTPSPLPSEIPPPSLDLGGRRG

[4] = tested on: PEG-3; assay: as above; settings: HeLa PEG-Prom luciferase reporter, overnight, CREF/GAPDH counter-screens
[5] = tested on: Rat fibroblasts (CREF); assay: as above; settings: CREF/GAPDH counter-screens
[6] = run 1, dose range 1, individual replicate IC50 per panel
[7] = run 2, dose range 1, individual replicate IC50 per panel

Row | Structure (SMILES) | pIC50 [1] | pIC50 [2, 6] | pIC50 [2, 7] | pIC50 [3] | pIC50 [4, 6] | pIC50 [4, 7] | pIC50 ([5]; mean of runs) | pIC50 [5, 6] | pIC50 [5, 7] | IC50 [1] | IC50 [3] | IC50 ([5]; mean of runs)
1 | CCCCCCCNC(=O)C1(CC2CC(c3cccc(Br)c3)=NO2)CCNCC1 (centres undefined) | 4.81 | 4.87 | 4.76 | 5.13 | 5.09 | 5.17 | 4.78 | 4.79 | 4.77 | – | – | –
2 | COc1ccccc1Nc1nc(-c2sc(NC(=O)c3ccco3)nc2C)cs1 | – | < 4.00 | < 4.00 | – | 5.13 | < 4.00 | – | < 4.00 | < 4.00 | > 100 µM (inactive) | inactive | > 100 µM (inactive)
3 | Cc1ccc(C(C[N+](=O)[O-])Sc2ccc(N)cc2)cc1 (centres undefined) | 4.73 | 4.68 | 4.79 | 5.09 | 5.02 | 5.19 | – | 4.59 | < 4.00 | – | – | 62.8 µM (inactive)
4 | COc1ccc(Nc2ncnc3ccc(Br)cc23)c(OC)c1 | 6.01 | 6.06 | 5.96 | 6.57 | 6.53 | 6.61 | – | < 4.00 | < 4.00 | – | – | > 100 µM (inactive)
5 | N=c1n(CC(=O)c2ccc([N+](=O)[O-])cc2)c2ccccc2n1Cc1ccc(Cl)cc1 | – | < 4.10 | 4.48 | 5.04 | 5.02 | 5.06 | 4.57 | 4.58 | 4.56 | inactive | – | –
6 | NS(=O)(=O)c1ccc(CCNc2nn3c(-c4ccc(F)c(Cl)c4)cnc3s2)cc1 | 4.85 | 4.89 | 4.81 | 5.57 | 5.54 | 5.61 | – | < 4.00 | < 4.00 | – | – | > 100 µM (inactive)
7 | COc1ccc(NC(=O)c2cc(-c3ccccn3)nc3ccccc23)cc1S(=O)(=O)N(C)C | – | < 4.00 | 4.36 | 6.14 | 5.95 | 6.48 | – | < 4.00 | < 4.00 | inactive | – | > 100 µM (inactive)
8 | CN(C)S(=O)(=O)c1ccc(-c2csc(N/N=C/c3ccc(O)cc3)n2)cc1 | 4.92 | 4.93 | 4.90 | 5.09 | 5.06 | 5.11 | 5.01 | 5.03 | 4.98 | – | – | –
9 | COc1ccc(/C=C2/CCCC(CN(C)C)C2=O)cc1 (centres undefined) | – | 4.42 | 4.62 | 5.01 | 4.95 | 5.09 | 4.54 | 4.63 | 4.47 | inactive | – | –
10 | CCCC(=O)NC(c1ccccc1)c1ccc2cccnc2c1O (centres undefined) | – | < 4.00 | < 4.00 | 5.61 | 5.52 | 5.72 | 4.88 | 6.23 | 4.59 | > 100 µM (inactive) | – | –
11 | O=C(N/N=C/c1cc([N+](=O)[O-])ccc1O)c1ccc(COc2ccc3c(c2)CCC3)o1 | – | < 4.00 | < 4.00 | 5.04 | 5.13 | 4.96 | – | < 4.00 | 4.27 | > 100 µM (inactive) | – | 76.8 µM (inactive)
12 | Cc1ccc(OCC(=O)c2cc(C)n(-c3ccccc3)c2C)c([N+](=O)[O-])n1 | 5.26 | 5.58 | 5.08 | – | 6.16 | < 4.00 | – | < 4.00 | < 4.00 | – | inactive | > 100 µM (inactive)
13 | O=C(O)c1ccc(N/N=C/c2ccc(OC(=O)c3cccc(Cl)c3)cc2)cc1 | 5.49 | 6.26 | 5.23 | 5.02 | 5.20 | 4.89 | – | < 4.00 | < 4.00 | – | – | > 100 µM (inactive)
14 | COC(COC(N)=O)C1=C(N2CC2)C(=O)C(C)=C(N2CC2)C1=O (centres undefined) | 4.82 | 4.99 | 4.70 | 6.03 | 5.89 | 6.23 | 5.35 | 5.09 | 6.02 | – | – | –
15 | CCCn1nc(C(=O)Nc2nc(-c3ccccn3)cs2)c2ccccc2c1=O | – | < 4.00 | 4.09 | 5.11 | 5.15 | 5.08 | – | < 4.00 | < 4.00 | inactive | – | > 100 µM (inactive)
16 | CCc1ccc(/C=C2\SC(=S)N(CCCC(=O)NC3=NCCS3)C2=O)cc1 | 5.34 | 5.34 | 5.35 | 5.92 | 5.89 | 5.94 | – | < 4.00 | < 4.00 | – | – | > 100 µM (inactive)

Row | Structure (SMILES) | pIC50 [1] | pIC50 [2, 6] | pIC50 [2, 7] | pIC50 [3] | pIC50 [4, 6] | pIC50 [4, 7] | pIC50 ([5]; mean of runs) | pIC50 [5, 6] | pIC50 [5, 7] | IC50 [1] | IC50 [3] | IC50 ([5]; mean of runs)
17 | CCc1ccc(/C=C2\SC(=S)N(CCCC(=O)Nc3cc(C)on3)C2=O)cc1 | 5.04 | 5.13 | 4.96 | 5.46 | 5.41 | 5.52 | – | < 4.00 | < 4.00 | – | – | > 100 µM (inactive)
18 | C/C(=N\NC(=O)c1cc(C2CC2)nc2ccccc12)c1ccc(O)cc1O | – | < 4.00 | < 4.00 | 5.49 | 5.51 | 5.46 | – | 4.67 | < 4.00 | > 100 µM (inactive) | – | 60.7 µM (inactive)
19 | Cc1ccc(OCC(=O)c2cc(C)n(Cc3ccco3)c2C)c([N+](=O)[O-])n1 | 4.89 | 5.14 | 4.73 | 5.17 | 5.19 | 5.15 | – | < 4.00 | < 4.00 | – | – | > 100 µM (inactive)
20 | COCCCNC(=O)c1ccc(Cn2c(=O)c3ccccc3n(Cc3ccccc3C#N)c2=O)cc1 | – | < 4.00 | < 4.00 | 5.38 | 5.39 | 5.37 | – | < 4.00 | < 4.00 | > 100 µM (inactive) | – | > 100 µM (inactive)
21 | CN=c1sc2c(n1C)C(=O)c1ccccc1C2=O | – | 4.53 | 4.31 | 5.00 | 5.02 | 4.99 | 5.30 | 5.30 | 5.30 | inactive | – | –
22 | O=C(N/N=C\c1c(O)ccc2ccccc12)c1cncc(Br)c1 | – | 4.39 | 4.16 | 6.29 | 6.28 | 6.30 | 5.01 | 5.61 | 4.77 | inactive | – | –
23 | Cc1ccc(/C=C2\SC(=S)N(CCCC(=O)Nc3ccccn3)C2=O)cc1 | 4.89 | 4.75 | 5.11 | 5.72 | 5.88 | 5.61 | – | < 4.00 | < 4.00 | – | – | > 100 µM (inactive)
24 | CN(C)c1ccc(C=c2c3ccccc3n3c2cc(-c2ccccc2)[n+]3C)cc1 | 5.08 | 5.03 | 5.14 | 5.37 | 5.15 | 5.81 | 4.53 | 4.56 | 4.50 | – | – | –
25 | O=c1cnnc(N/N=C/c2ccccn2)[nH]1 | – | < 4.00 | < 4.00 | 5.68 | 5.77 | 5.61 | – | < 4.00 | 4.47 | > 100 µM (inactive) | – | 67.1 µM (inactive)
26 | COc1cc(Nc2c3ccccc3nc3ccccc23)cc(OC)c1OC | – | 4.48 | 4.46 | 5.09 | 5.05 | 5.14 | 4.44 | 4.57 | 4.34 | inactive | – | –
27 | Cc1ccc(NC(=S)NC(=O)c2ccc(F)cc2)cc1S(=O)(=O)Nc1ccccc1Cl | – | 4.35 | 4.39 | 5.41 | 5.38 | 5.45 | – | < 4.00 | 5.87 | inactive | – | 50.7 µM (inactive)
28 | CCCC(=O)NC(c1ccc(C(C)C)cc1)c1ccc2cccnc2c1O (centres undefined) | – | 4.58 | 4.07 | 5.86 | 5.71 | 6.09 | – | < 4.00 | < 4.00 | inactive | – | > 100 µM (inactive)
29 | O=c1c2ccccc2sc2nc(CCl)nn12 | 4.95 | 4.92 | 4.98 | 5.03 | 5.03 | 5.02 | – | < 4.00 | < 4.00 | – | – | > 100 µM (inactive)
30 | COc1ccc(/C=C2\SC(=S)N(CCCC(=O)NNC(=O)c3ccccc3O)C2=O)cc1 | – | 4.66 | < 4.00 | 5.41 | 5.20 | 5.85 | – | < 4.00 | 4.36 | inactive | – | 71.6 µM (inactive)
31 | CC(=O)c1sc2c(c1OC(=O)c1ccc(Cl)cc1Cl)c(=O)n(-c1ccccc1)c(=S)n2-c1ccccc1 | 5.33 | 5.55 | 5.18 | 4.99 | 4.95 | 5.03 | – | < 4.00 | < 4.00 | – | – | > 100 µM (inactive)
